Experiment: method code SF-AS, from PMID: 1438511

SMILES	logD (pH 8.0)	logP
c1ccc(OCc2cccc(CN3CCCOC3)c2)cc1	2.75	–
c1ccc(OCc2cccc(CN3CCCCCC3)c2)cc1	–	2.87

From the SangsterLogP compilation
